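All cell lines were grown in 96-well plates and treated with compound for 48 hours. GI50 is the concentration that inhibits growth by half. At the TGI there is no net growth.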
Assays:
Assay in all cases: inhibition of tumour cell growth, NCI panel, 48 h
786-0 renal = system: 786-0 renal
A498 renal = system: A498 renal
A549 NSCLC = system: A549 NSCLC
ACHN renal = system: ACHN renal
BT-549 breast = system: BT-549 breast
CAKI-1 renal = system: CAKI-1 renal
CCRF-CEM leukemia = system: CCRF-CEM leukemia
COLO 205 colon = system: COLO 205 colon
DU-145 prostate = system: DU-145 prostate
HCC-2998 colon = system: HCC-2998 colon
HCT-116 colon = system: HCT-116 colon
HCT-15 colon = system: HCT-15 colon
HL-60(TB) leukemia = system: HL-60(TB) leukemia
HOP-62 NSCLC = system: HOP-62 NSCLC
HOP-92 NSCLC = system: HOP-92 NSCLC
HS 578T breast = system: HS 578T breast
HT29 colon = system: HT29 colon
IGROV1 ovarian = system: IGROV1 ovarian
K-562 leukemia = system: K-562 leukemia
KM12 colon = system: KM12 colon
LOX IMVI melanoma = system: LOX IMVI melanoma
M14 melanoma = system: M14 melanoma
MALME-3M melanoma = system: MALME-3M melanoma
MCF7 breast = system: MCF7 breast
MDA-MB-231 breast = system: MDA-MB-231 breast
MDA-MB-435 = system: MDA-MB-435
MOLT-4 leukemia = system: MOLT-4 leukemia
NCI-H226 lung = system: NCI-H226 lung
NCI-H23 lung = system: NCI-H23 lung
NCI-H460 lung = system: NCI-H460 lung
NCI-H522 lung = system: NCI-H522 lung
NCI/ADR-RES ovarian = system: NCI/ADR-RES ovarian
OVCAR-3 ovarian = system: OVCAR-3 ovarian
OVCAR-4 ovarian = system: OVCAR-4 ovarian
OVCAR-5 ovarian = system: OVCAR-5 ovarian
OVCAR-8 ovarian = system: OVCAR-8 ovarian
PC-3 prostate = system: PC-3 prostate
RPMI-8226 leukemia = system: RPMI-8226 leukemia
RXF 393 renal = system: RXF 393 renal
SF-268 CNS = system: SF-268 CNS
SF-295 CNS = system: SF-295 CNS
SF-539 CNS = system: SF-539 CNS
SK-MEL-2 melanoma = system: SK-MEL-2 melanoma
SK-MEL-28 melanoma = system: SK-MEL-28 melanoma
SK-MEL-5 melanoma = system: SK-MEL-5 melanoma
SK-OV-3 ovarian = system: SK-OV-3 ovarian
SN12C renal = system: SN12C renal
SNB-19 CNS = system: SNB-19 CNS
SNB-75 CNS = system: SNB-75 CNS
SR leukemia = system: SR leukemia
SW-620 colon = system: SW-620 colon
T-47D breast = system: T-47D breast
TK-10 renal = system: TK-10 renal
U251 CNS = system: U251 CNS
UACC-257 melanoma = system: UACC-257 melanoma
UACC-62 melanoma = system: UACC-62 melanoma
UO-31 renal = system: UO-31 renal

## C[C@@H](CS(C)(=O)=O)Nc1ncc2cc(Oc3ccc(F)cc3F)c(=O)n(C)c2n1
786-0 renal
  GI50: > 25 µM
  TGI: > 25 µM
A498 renal
  GI50: > 25 µM
  TGI: > 25 µM
A549 NSCLC
  GI50: > 25 µM
  TGI: > 25 µM
ACHN renal
  GI50: > 25 µM
  TGI: > 25 µM
BT-549 breast
  GI50: > 25 µM
  TGI: > 25 µM
CAKI-1 renal
  GI50: > 25 µM
  TGI: > 25 µM
CCRF-CEM leukemia
  GI50: > 25 µM
  TGI: > 25 µM
COLO 205 colon
  GI50: > 25 µM
  TGI: > 25 µM
DU-145 prostate
  GI50: > 25 µM
  TGI: > 25 µM
HCC-2998 colon
  GI50: > 25 µM
  TGI: > 25 µM
HCT-116 colon
  GI50: > 25 µM
  TGI: > 25 µM
HCT-15 colon
  GI50: > 25 µM
  TGI: > 25 µM
HL-60(TB) leukemia
  GI50: > 25 µM
  TGI: > 25 µM
HOP-62 NSCLC
  GI50: > 25 µM
  TGI: > 25 µM
HOP-92 NSCLC
  GI50: > 6.75 µM
  TGI: > 25 µM
HS 578T breast
  GI50: > 25 µM
  TGI: > 25 µM
HT29 colon
  GI50: > 25 µM
  TGI: > 25 µM
IGROV1 ovarian
  GI50: > 25 µM
  TGI: > 25 µM
K-562 leukemia
  GI50: > 25 µM
  TGI: > 25 µM
KM12 colon
  GI50: > 25 µM
  TGI: > 25 µM
LOX IMVI melanoma
  GI50: > 25 µM
  TGI: > 25 µM
M14 melanoma
  GI50: > 25 µM
  TGI: > 25 µM
MALME-3M melanoma
  GI50: > 25 µM
  TGI: > 25 µM
MCF7 breast
  GI50: > 25 µM
  TGI: > 25 µM
MDA-MB-231 breast
  GI50: > 25 µM
  TGI: > 25 µM
MDA-MB-435
  GI50: > 25 µM
  TGI: > 25 µM
MOLT-4 leukemia
  GI50: > 25 µM
  TGI: > 25 µM
NCI-H226 lung
  GI50: > 25 µM
  TGI: > 25 µM
NCI-H23 lung
  GI50: > 25 µM
  TGI: > 25 µM
NCI-H460 lung
  GI50: > 25 µM
  TGI: > 25 µM
NCI-H522 lung
  GI50: > 25 µM
  TGI: > 25 µM
NCI/ADR-RES ovarian
  GI50: > 25 µM
  TGI: > 25 µM
OVCAR-3 ovarian
  GI50: > 25 µM
  TGI: > 25 µM
OVCAR-4 ovarian
  GI50: > 25 µM
  TGI: > 25 µM
OVCAR-5 ovarian
  GI50: > 25 µM
  TGI: > 25 µM
OVCAR-8 ovarian
  GI50: > 25 µM
  TGI: > 25 µM
PC-3 prostate
  GI50: > 25 µM
  TGI: > 25 µM
RPMI-8226 leukemia
  GI50: > 25 µM
  TGI: > 25 µM
RXF 393 renal
  GI50: > 25 µM
  TGI: > 25 µM
SF-268 CNS
  GI50: > 25 µM
  TGI: > 25 µM
SF-295 CNS
  GI50: > 25 µM
  TGI: > 25 µM
SF-539 CNS
  GI50: > 25 µM
  TGI: > 25 µM
SK-MEL-2 melanoma
  GI50: > 25 µM
  TGI: > 25 µM
SK-MEL-28 melanoma
  GI50: > 25 µM
  TGI: > 25 µM
SK-MEL-5 melanoma
  GI50: > 25 µM
  TGI: > 25 µM
SK-OV-3 ovarian
  GI50: > 25 µM
  TGI: > 25 µM
SN12C renal
  GI50: > 25 µM
  TGI: > 25 µM
SNB-19 CNS
  GI50: > 25 µM
  TGI: > 25 µM
SNB-75 CNS
  GI50: > 25 µM
  TGI: > 25 µM
SR leukemia
  GI50: > 25 µM
  TGI: > 25 µM
SW-620 colon
  GI50: > 25 µM
  TGI: > 25 µM
T-47D breast
  GI50: > 25 µM
  TGI: > 25 µM
TK-10 renal
  GI50: > 25 µM
  TGI: > 25 µM
U251 CNS
  GI50: > 25 µM
  TGI: > 25 µM
UACC-257 melanoma
  GI50: > 25 µM
  TGI: > 25 µM
UACC-62 melanoma
  GI50: > 25 µM
  TGI: > 25 µM
UO-31 renal
  GI50: > 25 µM
  TGI: > 25 µM

## Nc1cc2nc3ccccc3sc-2cc1=O
786-0 renal
  GI50: 4.21 µM
  TGI: 14.5 µM
A498 renal
  GI50: 2.32 µM
  TGI: 8.71 µM
A549 NSCLC
  GI50: 2.06 µM
  TGI: 4.82 µM
ACHN renal
  GI50: 2.5 µM
  TGI: 11.1 µM
BT-549 breast
  GI50: 1.61 µM
  TGI: 3.32 µM
CAKI-1 renal
  GI50: 5.66 µM
  TGI: 22.1 µM
CCRF-CEM leukemia
  GI50: 2.47 µM
  TGI: > 100 µM
COLO 205 colon
  GI50: 2.16 µM
  TGI: 4.61 µM
DU-145 prostate
  GI50: 1.77 µM
  TGI: 3.25 µM
HCC-2998 colon
  GI50: 3.95 µM
  TGI: 13.3 µM
HCT-116 colon
  GI50: 2.56 µM
  TGI: 10.3 µM
HCT-15 colon
  GI50: 1.44 µM
  TGI: 11.1 µM
HL-60(TB) leukemia
  GI50: 2.07 µM
  TGI: 5.78 µM
HOP-62 NSCLC
  GI50: 2.51 µM
  TGI: 5.71 µM
HOP-92 NSCLC
  GI50: 2.77 µM
  TGI: 9.59 µM
HS 578T breast
  GI50: 2.21 µM
  TGI: 6.24 µM
HT29 colon
  GI50: 2.92 µM
  TGI: 6.86 µM
IGROV1 ovarian
  GI50: 3.02 µM
  TGI: 13.1 µM
K-562 leukemia
  GI50: 2.48 µM
  TGI: > 100 µM
KM12 colon
  GI50: 10.8 µM
  TGI: 30.6 µM
LOX IMVI melanoma
  GI50: 1.48 µM
  TGI: 3.74 µM
M14 melanoma
  GI50: 1.66 µM
  TGI: 3.2 µM
MALME-3M melanoma
  GI50: 2.04 µM
  TGI: 3.62 µM
MCF7 breast
  GI50: 2.38 µM
  TGI: 9.63 µM
MDA-MB-231 breast
  GI50: 1.76 µM
  TGI: 11.8 µM
MDA-MB-435
  GI50: 1.76 µM
  TGI: 3.26 µM
MOLT-4 leukemia
  GI50: 4.26 µM
  TGI: > 100 µM
NCI-H226 lung
  GI50: 4.62 µM
  TGI: 28.4 µM
NCI-H23 lung
  GI50: 1.54 µM
  TGI: 3.76 µM
NCI-H460 lung
  GI50: 2.9 µM
  TGI: 10.2 µM
NCI-H522 lung
  GI50: 2.46 µM
  TGI: 5.87 µM
NCI/ADR-RES ovarian
  GI50: 2.96 µM
  TGI: 16.7 µM
OVCAR-3 ovarian
  GI50: 1.76 µM
  TGI: 7.09 µM
OVCAR-4 ovarian
  GI50: 2.15 µM
  TGI: 6.21 µM
OVCAR-5 ovarian
  GI50: 1.93 µM
  TGI: 4.08 µM
OVCAR-8 ovarian
  GI50: 3.17 µM
  TGI: 13.8 µM
PC-3 prostate
  GI50: 1.51 µM
  TGI: 21.8 µM
RPMI-8226 leukemia
  GI50: 2.54 µM
  TGI: 26.4 µM
RXF 393 renal
  GI50: 2.13 µM
  TGI: 6.14 µM
SF-268 CNS
  GI50: 2.53 µM
  TGI: 8.67 µM
SF-295 CNS
  GI50: 2.44 µM
  TGI: 7.35 µM
SF-539 CNS
  GI50: 2.01 µM
  TGI: 4.26 µM
SK-MEL-2 melanoma
  GI50: 2.03 µM
  TGI: 4.24 µM
SK-MEL-28 melanoma
  GI50: 2.12 µM
  TGI: 4.04 µM
SK-MEL-5 melanoma
  GI50: 1.55 µM
  TGI: 2.93 µM
SK-OV-3 ovarian
  GI50: 13.1 µM
  TGI: 53.5 µM
SN12C renal
  GI50: 1.72 µM
  TGI: 3.4 µM
SNB-19 CNS
  GI50: 6.13 µM
  TGI: 20 µM
SNB-75 CNS
  GI50: 2.59 µM
  TGI: 7.71 µM
SR leukemia
  GI50: 4.27 µM
  TGI: > 100 µM
SW-620 colon
  GI50: 2.95 µM
  TGI: 10.4 µM
T-47D breast
  GI50: 5.96 µM
  TGI: 33.7 µM
TK-10 renal
  GI50: 5.72 µM
  TGI: 16.2 µM
U251 CNS
  GI50: 3.63 µM
  TGI: 15.1 µM
UACC-257 melanoma
  GI50: 2.3 µM
  TGI: 5.83 µM
UACC-62 melanoma
  GI50: 1.55 µM
  TGI: 3.33 µM
UO-31 renal
  GI50: 1.33 µM
  TGI: 3.36 µM

Reference: PubChem BioAssay (NCI)
